Data taken from ChEMBL document CHEMBL1201862, “PubChem BioAssay data set” (2004).
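Interpolation was linear, between the two tested concentrations surrounding the appropriate level; five concentrations were tested over 48 hours in 96-well plates. Here, GI50 denotes the concentration required for 50% inhibition of growth.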 Activity calls are given as the source filed them. Cut-off read from the data, not from the text of the source: active = GI50 up to about 1.1 µM and inactive = higher.

How the values were obtained:
Assay in all cases: NCI tumour cell line growth inhibition, 48 h
786-0 = test system: 786-0
A498 = test system: A498
A549 = test system: A549
ACHN = test system: ACHN
CAKI-1 = test system: CAKI-1
CCRF-CEM = test system: CCRF-CEM
COLO 205 = test system: COLO 205
DLD-1 = test system: DLD-1
DMS-273 = test system: DMS-273
EKVX = test system: EKVX
HCT-15 = test system: HCT-15
HL-60 = test system: HL-60
HOP-18 = test system: HOP-18
HOP-92 = test system: HOP-92
HT-29 = test system: HT-29
IGROV-1 = test system: IGROV-1
K562 = test system: K562
KM-20L2 = test system: KM-20L2
KM12 = test system: KM12
LOX IMVI = test system: LOX IMVI
LXFL 529 = test system: LXFL 529
M14 = test system: M14
M19-MEL = test system: M19-MEL
MOLT-4 = test system: MOLT-4
Malme-3M = test system: Malme-3M
NCI-H23 = test system: NCI-H23
NCI-H460 = test system: NCI-H460
NCI-H522 = test system: NCI-H522
OVCAR-3 = test system: OVCAR-3
OVCAR-4 = test system: OVCAR-4
OVCAR-5 = test system: OVCAR-5
OVCAR-8 = test system: OVCAR-8
RPMI-8226 = test system: RPMI-8226
RXF 393 = test system: RXF 393
SF-268 = test system: SF-268
SF-295 = test system: SF-295
SF-539 = test system: SF-539
SK-MEL-28 = test system: SK-MEL-28
SK-MEL-2 = test system: SK-MEL-2
SK-MEL-5 = test system: SK-MEL-5
SK-OV-3 = test system: SK-OV-3
SN12C = test system: SN12C
SNB-19 = test system: SNB-19
SNB-75 = test system: SNB-75
SW-620 = test system: SW-620
TK-10 = test system: TK-10
U-251 = test system: U-251
UACC-257 = test system: UACC-257
UACC-62 = test system: UACC-62
UO-31 = test system: UO-31
XF498 = test system: XF498
DMS-114 = test system: DMS-114
HCC 2998 = test system: HCC 2998
HCT-116 = test system: HCT-116
HOP-62 = test system: HOP-62
NCI-H226 = test system: NCI-H226
SNB-78 = test system: SNB-78
SR = test system: SR

## CC(NS(=O)(=O)c1ccc(Cl)cc1)C(=O)O (stereo unspecified)
786-0
  GI50: > 100 µM (inactive)
A498
  GI50: > 100 µM (inactive)
A549
  GI50: > 100 µM (inactive)
ACHN
  GI50: > 100 µM (inactive)
CAKI-1
  GI50: > 100 µM (inactive)
CCRF-CEM
  GI50: > 100 µM (inactive)
COLO 205
  GI50: > 100 µM (inactive)
DLD-1
  GI50: > 100 µM (inactive)
DMS-273
  GI50: > 100 µM (inactive)
EKVX
  GI50: > 100 µM (inactive)
HCT-15
  GI50: > 100 µM
HL-60
  GI50: > 100 µM (inactive)
HOP-18
  GI50: > 100 µM (inactive)
HOP-92
  GI50: > 100 µM (inactive)
HT-29
  GI50: > 100 µM (inactive)
IGROV-1
  GI50: > 100 µM (inactive)
K562
  GI50: > 100 µM (inactive)
KM-20L2
  GI50: > 100 µM (inactive)
KM12
  GI50: > 100 µM (inactive)
LOX IMVI
  GI50: > 100 µM (inactive)
LXFL 529
  GI50: > 100 µM (inactive)
M14
  GI50: > 100 µM (inactive)
M19-MEL
  GI50: > 100 µM (inactive)
MOLT-4
  GI50: > 100 µM (inactive)
Malme-3M
  GI50: > 100 µM (inactive)
NCI-H23
  GI50: > 100 µM (inactive)
NCI-H460
  GI50: > 100 µM (inactive)
NCI-H522
  GI50: > 100 µM (inactive)
OVCAR-3
  GI50: > 100 µM (inactive)
OVCAR-4
  GI50: > 100 µM (inactive)
OVCAR-5
  GI50: > 100 µM (inactive)
OVCAR-8
  GI50: > 100 µM (inactive)
RPMI-8226
  GI50: > 100 µM (inactive)
RXF 393
  GI50: > 100 µM (inactive)
SF-268
  GI50: > 100 µM (inactive)
SF-295
  GI50: > 100 µM (inactive)
SF-539
  GI50: > 100 µM (inactive)
SK-MEL-28
  GI50: > 100 µM (inactive)
SK-MEL-2
  GI50: > 100 µM (inactive)
SK-MEL-5
  GI50: > 100 µM (inactive)
SK-OV-3
  GI50: > 100 µM (inactive)
SN12C
  GI50: > 100 µM (inactive)
SNB-19
  GI50: > 100 µM (inactive)
SNB-75
  GI50: > 100 µM (inactive)
SW-620
  GI50: > 100 µM (inactive)
TK-10
  GI50: > 100 µM (inactive)
U-251
  GI50: > 100 µM (inactive)
UACC-257
  GI50: > 100 µM (inactive)
UACC-62
  GI50: > 100 µM (inactive)
UO-31
  GI50: > 100 µM (inactive)
XF498
  GI50: 66.7 µM (inactive)

## COc1ccc(/N=N/c2c(-c3ccccc3)nn(C(=O)CC(=O)Nc3cccc(Cl)c3)c2-c2ccccc2)cc1
786-0
  GI50: > 100 µM (inactive)
A498
  GI50: > 100 µM (inactive)
A549
  GI50: 32.3 µM (inactive)
ACHN
  GI50: > 100 µM (inactive)
CAKI-1
  GI50: 34.5 µM (inactive)
CCRF-CEM
  GI50: > 100 µM (inactive)
COLO 205
  GI50: > 100 µM (inactive)
DLD-1
  GI50: 40.6 µM (inactive)
DMS-114
  GI50: 45.8 µM (inactive)
DMS-273
  GI50: > 100 µM (inactive)
EKVX
  GI50: 29.4 µM (inactive)
HCC 2998
  GI50: 21.5 µM (inactive)
HCT-116
  GI50: 45.6 µM (inactive)
HCT-15
  GI50: > 100 µM
HL-60
  GI50: > 100 µM (inactive)
HOP-18
  GI50: 66.8 µM (inactive)
HOP-62
  GI50: 24.2 µM (inactive)
HOP-92
  GI50: 40.6 µM (inactive)
HT-29
  GI50: > 100 µM (inactive)
IGROV-1
  GI50: > 100 µM (inactive)
K562
  GI50: 85.7 µM (inactive)
KM-20L2
  GI50: 66.1 µM (inactive)
KM12
  GI50: 10.9 µM (inactive)
LOX IMVI
  GI50: > 100 µM (inactive)
LXFL 529
  GI50: > 100 µM (inactive)
M19-MEL
  GI50: > 100 µM (inactive)
MOLT-4
  GI50: 70.1 µM (inactive)
Malme-3M
  GI50: > 100 µM (inactive)
NCI-H226
  GI50: 4.82 µM (inactive)
NCI-H23
  GI50: 22.6 µM (inactive)
NCI-H460
  GI50: 49.3 µM (inactive)
NCI-H522
  GI50: 43 µM (inactive)
OVCAR-3
  GI50: 29.6 µM (inactive)
OVCAR-4
  GI50: 67.9 µM (inactive)
OVCAR-5
  GI50: 61.2 µM (inactive)
OVCAR-8
  GI50: > 100 µM (inactive)
RPMI-8226
  GI50: > 100 µM (inactive)
SF-268
  GI50: > 100 µM (inactive)
SF-295
  GI50: 26.9 µM (inactive)
SF-539
  GI50: 68.9 µM (inactive)
SK-MEL-28
  GI50: > 100 µM (inactive)
SK-MEL-2
  GI50: > 100 µM (inactive)
SK-MEL-5
  GI50: 72.9 µM (inactive)
SK-OV-3
  GI50: > 100 µM (inactive)
SN12C
  GI50: > 100 µM (inactive)
SNB-19
  GI50: > 100 µM (inactive)
SNB-75
  GI50: 6.08 µM (inactive)
SW-620
  GI50: > 100 µM (inactive)
TK-10
  GI50: 72.9 µM (inactive)
U-251
  GI50: > 100 µM (inactive)
UACC-257
  GI50: > 100 µM (inactive)
UACC-62
  GI50: > 100 µM (inactive)
UO-31
  GI50: 5.11 µM (inactive)
XF498
  GI50: > 100 µM (inactive)

## COc1ccc(S(=O)(=O)N/N=C(\C)CN2C(=O)c3ccccc3C2=O)cc1OC
786-0
  GI50: > 100 µM (inactive)
A498
  GI50: > 100 µM (inactive)
A549
  GI50: > 100 µM (inactive)
ACHN
  GI50: > 100 µM (inactive)
CAKI-1
  GI50: > 100 µM (inactive)
CCRF-CEM
  GI50: > 100 µM (inactive)
COLO 205
  GI50: > 100 µM (inactive)
DLD-1
  GI50: > 100 µM (inactive)
DMS-114
  GI50: > 100 µM (inactive)
DMS-273
  GI50: > 100 µM (inactive)
EKVX
  GI50: > 100 µM (inactive)
HCC 2998
  GI50: > 100 µM (inactive)
HCT-116
  GI50: > 100 µM (inactive)
HCT-15
  GI50: > 100 µM
HL-60
  GI50: > 100 µM (inactive)
HOP-18
  GI50: > 100 µM (inactive)
HOP-62
  GI50: > 100 µM (inactive)
HOP-92
  GI50: > 100 µM (inactive)
HT-29
  GI50: > 100 µM (inactive)
IGROV-1
  GI50: > 100 µM (inactive)
K562
  GI50: > 100 µM (inactive)
KM-20L2
  GI50: > 100 µM (inactive)
KM12
  GI50: > 100 µM (inactive)
LXFL 529
  GI50: > 100 µM (inactive)
M14
  GI50: > 100 µM (inactive)
M19-MEL
  GI50: > 100 µM (inactive)
MOLT-4
  GI50: > 100 µM (inactive)
Malme-3M
  GI50: > 100 µM (inactive)
NCI-H226
  GI50: > 100 µM (inactive)
NCI-H23
  GI50: > 100 µM (inactive)
NCI-H460
  GI50: > 100 µM (inactive)
NCI-H522
  GI50: > 100 µM (inactive)
OVCAR-3
  GI50: > 100 µM (inactive)
OVCAR-4
  GI50: > 100 µM (inactive)
OVCAR-5
  GI50: > 100 µM (inactive)
OVCAR-8
  GI50: > 100 µM (inactive)
RPMI-8226
  GI50: > 100 µM (inactive)
SF-268
  GI50: > 100 µM (inactive)
SF-295
  GI50: > 100 µM (inactive)
SF-539
  GI50: > 100 µM (inactive)
SK-MEL-28
  GI50: > 100 µM (inactive)
SK-MEL-2
  GI50: > 100 µM (inactive)
SK-MEL-5
  GI50: > 100 µM (inactive)
SK-OV-3
  GI50: > 100 µM (inactive)
SN12C
  GI50: > 100 µM (inactive)
SNB-19
  GI50: > 100 µM (inactive)
SNB-75
  GI50: > 100 µM (inactive)
SNB-78
  GI50: > 100 µM (inactive)
SR
  GI50: > 100 µM (inactive)
SW-620
  GI50: > 100 µM (inactive)
TK-10
  GI50: > 100 µM (inactive)
U-251
  GI50: > 100 µM (inactive)
UACC-257
  GI50: > 100 µM (inactive)
UACC-62
  GI50: > 100 µM (inactive)
UO-31
  GI50: > 100 µM (inactive)
XF498
  GI50: > 100 µM (inactive)
